ChEMBL document CHEMBL3217753, “Discovery of selective 2,4-diaminopyrimidine-based photoaffinity probes for glyoxalase I” (Medchemcomm, 2014)
Activity calls are given as the source filed them. The rule behind the calls is not given here.

Tests used:
Lactoylglutathione lyase [1] = biological target: T1, Lactoylglutathione lyase (Homo sapiens, UniProt Q04760); assay: Inhibition of recombinant GLO-1 (unknown origin) assessed as S-D-lactoylglutathione formation preincubated for 1 hr followed by methylglyoxal and GSH addition measured after 9 mins by spectrophotometric analysis
Target sequence in this assay (Q04760 whole entry): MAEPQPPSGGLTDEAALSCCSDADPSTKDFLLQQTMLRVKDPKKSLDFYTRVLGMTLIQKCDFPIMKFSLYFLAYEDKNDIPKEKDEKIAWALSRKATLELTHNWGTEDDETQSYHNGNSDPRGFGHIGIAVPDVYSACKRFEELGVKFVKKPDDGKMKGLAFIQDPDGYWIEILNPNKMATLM

HeLa [2] = assay: Growth inhibition of human HeLa cells after 48 hrs by CellTiter-Glo assay in presence of 5 mM glucose; assay type: functional
NCI-H522 [3] = assay: Growth inhibition of human NCI-H522 cells after 48 hrs by CellTiter-Glo assay in presence of 5 mM glucose; assay type: functional; settings: NCI-H522, 48 h
HeLa [4] = assay: Ratio of GI50 for human HeLa cells in presence of 5 mM glucose to GI50 for human HeLa cells in presence of 25 mM glucose; assay type: functional
A549 [5] = assay: Growth inhibition of human A549 cells after 48 hrs by CellTiter-Glo assay in presence of 25 mM glucose; assay type: functional; settings: A549, 48 h
A549 [6] = assay: Growth inhibition of human A549 cells after 48 hrs by CellTiter-Glo assay in presence of 5 mM glucose; assay type: functional; settings: A549, 48 h
HeLa [7] = assay: Growth inhibition of human HeLa cells after 48 hrs by CellTiter-Glo assay in presence of 25 mM glucose; assay type: functional
NCI-H522 [8] = assay: Growth inhibition of human NCI-H522 cells after 48 hrs by CellTiter-Glo assay in presence of 25 mM glucose; assay type: functional; settings: NCI-H522, 48 h
Lactoylglutathione lyase [9] = biological target: T1, Lactoylglutathione lyase; assay: (§1) Competitive binding affinity to GLO-1 in HEK293T cell lysate at 50 uM after overnight incubation followed by UV-irradiation for 1 hr by pull-down assay in presence of N-(4-(4-(5-fluoro-4-(2-(methylsulfonamido)phenylamino)pyrimidin-2-ylamino)benzoyl)phenyl)-5-((3aS,4S,6aR)-2-oxohexahydro-1H-thieno[3,4-d]imidazol-4-yl)pentanamide; assay type: cell-based; settings: HEK-293T
Target sequence in this assay (Q04760 2-184 limits assumed): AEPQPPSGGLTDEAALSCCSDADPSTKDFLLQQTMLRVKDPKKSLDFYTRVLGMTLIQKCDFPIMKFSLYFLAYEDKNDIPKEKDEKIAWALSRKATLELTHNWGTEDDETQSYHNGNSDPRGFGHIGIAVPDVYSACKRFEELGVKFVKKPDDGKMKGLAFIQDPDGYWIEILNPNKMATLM

Lactoylglutathione lyase [10] = biological target: T1, Lactoylglutathione lyase; assay: Competitive binding affinity to human recombinant GLO-1 at 50 uM in presence of N-(4-(4-(5-fluoro-4-(2-(methylsulfonamido)phenylamino)pyrimidin-2-ylamino)benzoyl)phenyl)-5-((3aS,4S,6aR)-2-oxohexahydro-1H-thieno[3,4-d]imidazol-4-yl)pentanamide
Target sequence in this assay (Q04760 2-184 limits assumed): as above

Lactoylglutathione lyase [11] = biological target: T1, Lactoylglutathione lyase; assay: Binding affinity to GLO-1 in live HEK293T cells by pull-down assay; assay type: cell-based; settings: HEK-293T
Target sequence in this assay (Q04760 2-184 limits assumed): as above

Lactoylglutathione lyase [12] = biological target: T1, Lactoylglutathione lyase; assay: as §1, with “Western blotting analysis” for “pull-down assay”; assay type: cell-based; settings: HEK-293T
Target sequence in this assay (Q04760 2-184 limits assumed): as above

HeLa [13] = assay: Induction of apoptosis in human HeLa cells under high glucose condition assessed as caspase-3 degradation at 1 to 50 uM after 24 hrs by Western blotting analysis; assay type: functional, cell-based
Lactoylglutathione lyase [14] = biological target: T1, Lactoylglutathione lyase; assay: Competitive binding affinity to dimeric form of GLO-1 in HEK293T cell lysate at 20 uM after overnight incubation followed by UV-irradiation for 1 hr by fluorescence assay in presence of N-(4-(4-(5-fluoro-4-(2-(methylsulfonamido)phenylamino)pyrimidin-2-ylamino)benzoyl)phenyl)hex-5-ynamide; assay type: cell-based; settings: HEK-293T
Target sequence in this assay (Q04760 2-184 limits assumed): as above

Lactoylglutathione lyase [15] = biological target: T1, Lactoylglutathione lyase; assay: Inhibition of GLO-1 in human HeLa cells under high glucose condition assessed as increase in methylglyoxal level at 5 uM after 24 hrs by spectrophotometric analysis; assay type: cell-based
Target sequence in this assay (Q04760 2-184 limits assumed): as above

Lactoylglutathione lyase [16] = biological target: T1, Lactoylglutathione lyase; assay: Competitive binding affinity to monomeric form of GLO-1 in HEK293T cell lysate at 20 uM after overnight incubation followed by UV-irradiation for 1 hr by fluorescence assay in presence of N-(4-(4-(5-fluoro-4-(2-(methylsulfonamido)phenylamino)pyrimidin-2-ylamino)benzoyl)phenyl)hex-5-ynamide; assay type: cell-based; settings: HEK-293T
HeLa [17] = assay: Induction of apoptosis in human HeLa cells under high glucose condition assessed as nuclear fragmentation at 5 uM after 24 hrs by DAPI staining-based fluorescence microscopic analysis; assay type: functional, cell-based
Lactoylglutathione lyase [18] = biological target: T1, Lactoylglutathione lyase; assay: Competitive binding affinity to GLO-1 in human HeLa cells at 100 uM incubated for 6 hrs followed by UV-irradiation for 1 hr by fluorescence microscopic analysis in presence of N-(4-(4-(5-fluoro-4-(2-(methylsulfonamido)phenylamino)pyrimidin-2-ylamino)benzoyl)phenyl)hex-5-ynamide; assay type: cell-based
Lactoylglutathione lyase [19] = biological target: T1, Lactoylglutathione lyase; assay: Competitive binding affinity to monomeric form of GLO-1 in HEK293T cells at 20 uM incubated for 6 hrs followed by UV-irradiation for 1 hr by fluorescence assay in presence of N-(4-(4-(5-fluoro-4-(2-(methylsulfonamido)phenylamino)pyrimidin-2-ylamino)benzoyl)phenyl)hex-5-ynamide; assay type: cell-based; settings: HEK-293T
Lactoylglutathione lyase [20] = biological target: T1, Lactoylglutathione lyase; assay: Competitive binding affinity to dimeric form of GLO-1 in HEK293T cells at 20 uM incubated for 6 hrs followed by UV-irradiation for 1 hr by fluorescence assay in presence of N-(4-(4-(5-fluoro-4-(2-(methylsulfonamido)phenylamino)pyrimidin-2-ylamino)benzoyl)phenyl)hex-5-ynamide; assay type: cell-based; settings: HEK-293T

SMILES: CS(=O)(=O)Nc1ccccc1Nc1nc(Nc2ccc(Oc3ccccc3)cc2)ncc1F
- IC50 (Lactoylglutathione lyase [1]): 0.0458 µM
- GI50 (HeLa [2]): 14 µM
- GI50 (NCI-H522 [3]): 8.3 µM
- Ratio IC50 (HeLa [4]): 2.6
- GI50 (A549 [5]): 26.9 µM
- GI50 (A549 [6]): 37.4 µM
- GI50 (HeLa [7]): 7.3 µM
- GI50 (NCI-H522 [8]): 7.3 µM

SMILES: CS(=O)(=O)Nc1ccccc1Nc1nc(Nc2ccc(C(=O)c3ccc(NC(=O)CCCC[C@@H]4SC[C@@H]5NC(=O)N[C@@H]54)cc3)cc2)ncc1F
- Activity (Lactoylglutathione lyase [9]): Active
- Activity (Lactoylglutathione lyase [10]): Active
- Activity (Lactoylglutathione lyase [11]): inactive
- Activity (Lactoylglutathione lyase [12]): Active

SMILES: C#CCCCC(=O)Nc1ccc(C(=O)c2ccc(Nc3ncc(F)c(Nc4ccccc4NS(C)(=O)=O)n3)cc2)cc1
- IC50 (Lactoylglutathione lyase [1]): 0.0264 µM
- Activity (HeLa [13]): Active
- GI50 (HeLa [2]): 5.7 µM
- GI50 (NCI-H522 [3]): 2.7 µM
- Activity (Lactoylglutathione lyase [14]): Active
- inhibition (Lactoylglutathione lyase [15]): Active
- Activity (Lactoylglutathione lyase [16]): Active
- GI50 (A549 [5]): 13.3 µM
- GI50 (A549 [6]): 15.5 µM
- GI50 (HeLa [7]): 4.6 µM
- GI50 (NCI-H522 [8]): 2.9 µM
- Activity (HeLa [17]): Active
- Activity (Lactoylglutathione lyase [18]): Active
- Activity (Lactoylglutathione lyase [19]): Active
- Activity (Lactoylglutathione lyase [20]): Active

SMILES: CS(=O)(=O)Nc1ccccc1Nc1nc(Nc2ccc(C(=O)OCc3ccccc3)cc2)ncc1F
- IC50 (Lactoylglutathione lyase [1]): 0.0513 µM
- GI50 (HeLa [2]): 61.9 µM
- GI50 (NCI-H522 [3]): 40.2 µM
- Ratio IC50 (HeLa [4]): 2.6
- GI50 (A549 [5]): > 50 µM
- GI50 (A549 [6]): > 50 µM
- GI50 (HeLa [7]): 37 µM
- GI50 (NCI-H522 [8]): 16.5 µM

SMILES: CS(=O)(=O)Nc1ccccc1Nc1nc(Nc2ccc(Cl)cc2)ncc1F
- IC50 (Lactoylglutathione lyase [1]): 0.0539 µM
- GI50 (HeLa [2]): 61 µM
- GI50 (NCI-H522 [3]): 25 µM
- Ratio IC50 (HeLa [4]): 2.6
- GI50 (A549 [5]): > 50 µM
- GI50 (A549 [6]): > 50 µM
- GI50 (HeLa [7]): 23.2 µM
- GI50 (NCI-H522 [8]): 12.2 µM
